Measured values from patent publication US10583210B2, “Auger electron therapy for glioblastoma” (Syddansk Universitet, priority 2014, dated 2020).
“Also recorded” adds a separate entry of the source.

Tests used:
[1] = system: orthotopic xenografted GBM (evolved from the T87 GSC); assay: Therapeutic study in orthotopic xenografted GBM-bearing nude rats (PET, survival, histology)
Description: All animal procedures were conducted in accordance with the obtained approval from the national Animal Experiments Inspectorate (permission J. Nr. 2008/561-1572). Male athymic nude rats (n=24) aged six weeks (Hsd:RH-Foxnl mu, Harlan laboratories) were anaesthetized subcutaneously (mixture of Hypnorm and Midazolam) and placed in a small animal stereotaxic instrument (Model 900, David Kopf Instruments). Through a midline scalp incision, the bregma was exposed, and one mm anteriorly and two mm laterally to this a burr hole was made. A blunt cannula (Hamilton 7102 syringe) was then advanced to a depth of 3.5 mm (right striatum), and a 2 μl cell suspension of 300,000 T87 single cells in Hank's Balanced Salt Solution (Gibco) supplemented with 0.9% glucose (SAD 500 mg/ml) was slowly injected. After removal of the cannula, the skin was closed with VICRYL 5.0 (Ethicon) disrupted sutures. Two weeks after tumor-cell inoculation, a SMP-200 iPRECIO® Micro Infusion Pump (Data Sciences International) was implanted subcutaneously, since preliminary experiments had shown establishment of tumors at this time point. Infusion protocols (instant mode, constant flow mode and 5 μl/hour infusion rate) were downloaded, and the pumps were conditioned according to Low Flow Infusion Standard Operational Procedure. Rats were anaesthetized and fixated as described above. The midline incision was re-incised and the burr hole was identified. A 4 mm pump connector cannula (PlasticsOne model 328OPM/PK/Spc) was then connected to the pump catheter and implanted (according to the manufactures Technical Note 6) with the tip of the cannula in the center of the bulk tumor. Pumps were loaded with isotone saline (n=8, group I) or 0.1 mM MTX (Sigma-Aldrich) (n=16, group II and III). Finally, the skin was closed with VICRYL 5.0 disrupted sutures. As one of the rats with an MTX loaded pump never woke up after surgery it was censored from the study. Two days later the 23 rats were anaesthetized using isoflurane, and residual saline or MTX was extracted from the pump reservoirs according to the manufacturer's instructions. The reservoirs were refilled with 960 μl of 0.3 μg/m ^127I-UdR (n=8, group I) or twice with the ^125I-UdR activity (n=15, group II and III), enabling 8 days of continuous infusion and a cumulated infused ^125I-UdR activity of 83±7 MBq.
Rats were fed ad libitum and to block the thyroid gland, KI (Sigma-Aldrich) was added to the drinking water (1 mg/ml) from the day of pump implantation and the following 14 days. At the end of the observation period (180 days after completion of treatment) or once animals reached the pre-determined humane endpoints (neurological deficits or >20% weight-loss) they were anaesthetized by isoflurane and euthanized by intravenous pentobarbital injection.
For tumor response evaluation, the animals were PET scanned biweekly in the initial phase and later every third week using the Inveon PET scanner. […] After the tracer injection pairs of animals were placed head-to-head in the scanner and at 40 min. post injection a 14 min. static scan was performed. The acquired data were reconstructed using the ordered subset expectation maximization in two dimensions algorithm without scatter and attenuation correction in the Inveon Acquisition Workplace software module (Siemens).
Brain, thyroid gland, liver and kidneys were removed post-mortem and fixed in 4% formaldehyde. After fixation, brains were divided in one mm thick coronal sections using a rat brain matrix (PlaticsOne) followed by paraffin embedment. […] Three μm sections were cut and all sections were stained with HE for morphological evaluation.

[2] = system: T87 GBM cells; assay: 125I-UdR incorporation after MTX/F-UdR exposure, T87 (gammacounter); assay type: cell-based, human; conditions: for 125I-UdR incorporation compared to non-treated control cells: 1 hour pre-treatment with 1 μM, 16 h later 100 Bq/mL 125I-UdR for 72 h
Description: A) 1 hour pre-treatment of T87 GBM cells in vitro with 1 μM MTX or F-UdR before ^125I-UdR exposure increased the ^125I incorporation in the cells. […] The incorporation rate was determined by a gammacounter. […] F-UdR was effective in concentrations ≥1 nM while MTX was effective at ≥10 nM. At a F-UdR concentration of 10 μM, the 125I-incorporation declined presumably do to toxic effects from the F-UdR. […] Opposed to the T87 cell line, the T86 cell line is also known to have an unmethylated MGMT promoter region, thereby being less responsive to TMZ chemotherapy.

[3] = system: T87 glioblastoma cells; assay: CellTiter Blue viability assay, T87 cells; assay type: cell-based, human
Description: (§1) Cells were cultured as free-floating spheroids in the absence of serum at 36° C. in a humidified incubator with 5% CO2. Two GSCs passage 9-12, designated […], were utilized. They were established, as previously described in our laboratory in 2009 ([…]) and 2010 ([…]), in accordance with the Regional Scientific Ethical Committee (approval number S-VF-20040102). They have; the ability to form new spheroids at clonal density, a karyotype typical of GBMs, the ability to differentiate into cells expressing neuronal, astrocytic and oligodendrocyte markers upon culturering in serum-containing medium and the ability to form highly invasive tumors upon orthotopic xenografting (exemplified for the […] GCS in Supplementary FIG. 1). […] The cells were then incubated in serum-free medium or serum-free medium containing either the non-radioactive, but chemically identical ^[…]-UdR (0.3 μg/ml, Sigma-Aldrich), or increasing activities of ^125I-UdR (0-3 kBq/ml). At day 7, 20 μl of CellTiter Blue (Promega) was added and the cells were returned to the incubator for 6 hours prior to recording of the fluorescence in a Victor3 Multilabel Plate Reader (PerkinElmer Life Sciences).

[4] = system: TE-671 human rhabdomyosarcoma cells; conditions: IT bolus of 125I-UdR, IT infusion of MTX; cited from earlier work
[5] = system: T87 spheroids; assay: 2D spheroid migration assay, T87; assay type: cell-based, human; conditions: for spheroid migration: 3 kBq/ml 125I-UdR or 0.3 μg/ml 127I-UdR, day 0-5, effect from day three
Description: (§2) Geltrex (Gibco) and serum-free medium was mixed (1+49) and 1.4 ml was added to each well in 12-well plates. Coated plates were incubated over night at 36° C. and the following morning the supernatant was aspirated. Then, one spheroid (100-200 μm) was aspirated into a 0.1-2.0 μl pipette and meticulously embedded in the coating. After incubating the plate for 75 minutes at 36° C., 800 μl serum-free medium was added. When spheroids started migrating (designated day 0) additionally 200 μl of serum-free medium (serving as untreated controls), ^127I-UdR or ^125I-UdR was added resulting in a final concentration of 0.3 μg/ml or 3 kBq/ml of ^127I-UdR or ^125I-UdR, respectively. Images were obtained daily from day 0 to day 5 using a Leica DM IRB inverted phase-contrast microscope, a Leica DFC300FX camera, and the Leica Application Suite version 2.6.0 RI computer software. The radius of the spheroids was determined (http://imagej.nih.gov/ij/) and the migration speed/day was calculated.

[6] = system: T78 spheroids; assay: 2D spheroid migration assay, T78; assay type: cell-based, human; conditions: 3 kBq/ml 125I-UdR, from day three, vs 127I-UdR treated spheroids
Description: as §2

[7] = Intracerebral distribution by SPECT/CT; assay type: in vivo, athymic nude rats; conditions: constant intratumoral CED for 8 days, last day of infusion
Description: The intracranial distribution of infused ^125I-UdR was measured at the last day of infusion using a Siemens Inveon Small Animal PET/SPECT/CT scanner. The animals were anesthetized using isoflurane and subsequently SPECT scanned for approximately 42 min using 1.8 mm pinhole collimators (3×1.8 RWB collimators) with 30 projections in 180 degrees rotation. […] In one of the animals a low-dose CT scan was performed in combination with the SPECT scan to visualize the surrounding cranium.

[8] = system: C6 glioma; conditions: local implant, 7.4 MBq 125I-UdR, passive diffusion; cited from earlier work
[9] = system: T78 glioblastoma (GBM) cells; assay: CellTiter Blue viability assay, T78 cells; assay type: cell-based, human
Description: as §1

[10] = Adverse effect evaluation (blood samples, post-mortem histology); assay type: in vivo, athymic nude rats
[11] = co-incubation with 18.5 KBq/mL 125I-UdR for 4 hours

Cn1nnc2c(C(N)=O)ncn2c1=O [TMZ, temozolomide]
maximum survival extrapolated for TMZ monotherapy ([1]; extrapolating the U87MG data to the present findings): 66 days | median survival ([1]; orthotopic GBM rat model, KM-survival plot FIG. 14): 47 days

O=c1[nH]c(=O)n([C@H]2C[C@H](O)[C@@H](CO)O2)cc1F [F-UdR, 5-Fluoro-2′-deoxyuridine]
125I-UdR incorporation compared to non-treated control cells [2]: significantly increase | concentration effective in increasing 125I incorporation [2, 11]: ≥ 1 nM | 125I-incorporation at 10 μM ([2]; co-incubation with 18.5 KBq/mL 125I-UdR for 4 hours, presumably toxic effects): declined | killing effect compared with MTX ([3]; T87, 7 days exposure): stronger killing effect

CN(Cc1cnc2nc(N)nc(N)c2n1)c1ccc(C(=O)N[C@@H](CCC(=O)O)C(=O)O)cc1 [MTX, methotrexate]
median time to onset of paralysis [4]: no significant effect | 125I-UdR incorporation compared to non-treated control cells [2]: significantly increase | concentration effective in increasing 125I incorporation [2, 11]: ≥ 10 nM

O=c1[nH]c(=O)n([C@H]2C[C@H](O)[C@@H](CO)O2)cc1[125I] [^125I-UdR, 5-[^125I]iodo-2′-deoxyuridine]
spheroid migration [5]: significantly reduced; also recorded: clearly inhibited | spheroid expansion in size ([5]; vs untreated or 127I-UdR exposed spheroids): not able to expand in size | spheroid migration [6]: significantly reduced | 125I in the tumor region by SPECT/CT [7]: high concentration | animals surviving the entire observation period of 180 days [8]: 20% | median survival [8]: 35 days | cell survival compared to untreated controls ([9]; T78, day 7, most activity concentrations (0-3 kBq/ml), p<0.0001): significantly decreased | activity concentrations with highly significant effect compared to 127I-UdR ([9]; T78, p<0.0001): ≥ 100 Bq/ml | IC50 (cell viability) ([3]; T87, 7 days exposure, non-linear regression, range printed 99-120 Bq/mL): 109 Bq/mL | cell survival compared to untreated controls ([3]; T87, day 7, most activity concentrations (0-3 kBq/ml), p<0.0001): significantly decreased | activity concentrations with highly significant effect compared to 127I-UdR ([3]; T87, p<0.0001): ≥ 100 Bq/ml

O=c1[nH]c(=O)n([C@H]2C[C@H](O)[C@@H](CO)O2)cc1I [^127I-UdR, 5-iodo-2′-deoxyuridine]
animals developing a PET-detectable tumor / tumor progression by [11C]MeAIB PET ([1]; 180 days observation period): rapidly progressed | animals surviving the entire observation period ([1]; 180 days, surviving/total animals): 0/8 | time from therapy initiation to the first PET-based tumor detection ([1]; [11C]MeAIB PET): 21 days | post-mortem histology of the brains ([1]; anti-human vimentin staining): very large tumors | longest survival after initiation of treatment ([1]; death due to massive tumor burden): ≤ 23 days | spheroid migration [5]: unaffected | animals with dark neurons in the hippocampus (CA3 region) ([10]; HE stained brain sections): 4/8 | animals with dark neurons in the neocortex ([10]; HE stained brain sections): 7/8 | thyroid gland histology ([10]; HE stained sections): normofollicular architecture | liver histology (hepatocyte necrosis, haemorrhage, inflammation) ([10]; PAS-diastase staining): no signs of hepatocyte necrosis, haemorrhage or inflammation | animals surviving the entire observation period of 180 days [8]: No ^127I-UdR treated animal survived the entire observation period | median survival [8]: 20 days
